Data on one substance can be found in US9089509B2, “Method of treatment of age-related macular degeneration” (YEDA RESEARCH AND DEVELOPMENT CO., LTD., priority 2006, dated 2015).

The subject of assay [1] is Tg-AD mice (APPK595N, M596L+PS1ΔE9). The assay is described as follows: Morris water maze (MWM) spatial learning/memory in Cop-1-vaccinated Tg-AD mice. Particulars: acquisition and reversal tasks (FIGS. 7A-7B). It is filed as in vivo, mouse. How it is done: (§1) Each mouse was subcutaneously injected five times with a total of 100 μg of high-molecular-weight (TV-5010 DS, from batch no. 486220205; Teva Pharmaceutical Industries, Petach Tikva, Israel) emulsified in 200 μl PBS, from experimental day 0 until day 24, twice during the first week and once a week thereafter.
Spatial learning/memory was assessed by performance on a hippocampus-dependent visuo-spatial learning task in the Morris water maze (MWM) and carried out as described (Lichtenwalner et al., 2001).
MWM behavior scores were analyzed using […]. Treatment group and trial block were used as sources of variation to evaluate the significance of differences between mean scores during acquisition trial blocks in the MWM.
Two weeks before the end of the experiment, all mice were tested in a Morris water maze (MWM) for cognitive activity, as reflected by their performance of a hippocampus-dependent spatial learning/memory task. […] Differences in cognitive performance were manifested in both the acquisition (FIG. 7A) and the reversal tasks (FIG. 7B).

Assay [2] has as its system retinal ganglion cells (RGCs). Conditions: cited from earlier work.
Assay [3] relates to Tg-AD mice (APPK595N, M596L+PS1ΔE9). The assay is described as follows: Cop-1 vaccination of Tg-AD mice: neurogenesis in hippocampal dentate gyrus (BrdU, NeuN, DCX). The format is in vivo, mouse. As for the experimental part:
For BrdU staining, sections were washed with PBS and incubated in 2N HCl at 37° C. for 30 min. Sections were blocked for 1 h with blocking solution [PBS containing 20% normal horse serum and 0.1% Triton X-100, or PBS containing mouse immunoglobulin blocking reagent obtained from Vector Laboratories (Burlingame, Calif.)].
For immunohistochemistry, tissue sections were treated with a permeabilization/blocking solution containing 10% FCS, 2% bovine serum albumin, 1% glycine, and 0.05% Triton X-100 (Sigma-Aldrich, St. Louis). Tissue sections were stained overnight at 4° C. with specified combinations of the following primary antibodies: rat anti-BrdU (1:200; Oxford Biotechnology, Kidlington, Oxfordshire, UK), goat anti-doublecortin (anti-DCX) (1:400; Santa Cruz Biotechnology, Santa Cruz, Calif.), and mouse anti-neuronal nuclear protein (anti-NeuN) (1:200; Chemicon). […] Expression of IGF-I was detected by goat anti-IGF-I Abs (1:20; R&D Systems). Expression of TNF-α was detected by goat anti-TNF-α Abs (1:100; R&D Systems). T cells were detected with anti-CD3 polyclonal Abs (rabbit, 1:100; DakoCytomation, CA). […]
For in-vivo experiments, the numbers of Aβ plaques and CD11b^+ microglia in the hippocampus were counted at 300-μm intervals in 6-8 coronal sections (30 μm) from each mouse. Neurogenesis in the dentate gyrus was evaluated by counting of pre-mature neurons (DCX^+), proliferating cells (BrdU^+), and newly formed mature neurons (BrdU^+/NeuN^+) in six coronal sections (370 μm apart) per mouse brain. To obtain an estimate of the total number of labeled cells per dentate gyrus, the total number of cells counted in the selected coronal sections from each brain was multiplied by the volume index (the ratio between the volume of the dentate gyrus and the total combined volume of the selected sections). […] Quantification of CD3^+, CD11b^+ and CD11c^+ cells were analyzed from 30-50 Aβ-plaques of each mouse tested in this study. […]

Assay [4] shares this test system. The assay is described as follows: Cop-1 vaccination of Tg-AD mice: Aβ plaques, microglial phenotype and T cells in hippocampus (immunohistochemistry). It is filed as in vivo, mouse. As for the experimental part: For immunohistochemistry, tissue sections were treated with a permeabilization/blocking solution containing 10% FCS, 2% bovine serum albumin, 1% glycine, and 0.05% Triton X-100 (Sigma-Aldrich, St. Louis). Tissue sections were stained overnight at 4° C. with specified combinations of the following primary antibodies: rat anti-BrdU (1:200; Oxford Biotechnology, Kidlington, Oxfordshire, UK), goat anti-doublecortin (anti-DCX) (1:400; Santa Cruz Biotechnology, Santa Cruz, Calif.), and mouse anti-neuronal nuclear protein (anti-NeuN) (1:200; Chemicon). Secondary antibodies were FITC-conjugated donkey anti-goat, Cy-3-conjugated donkey anti-mouse, and Cy-3- or Cy-5-conjugated donkey anti-rat (1:200; Jackson ImmunoResearch, West Grove, Pa.). CD11b (MAC1; 1:50; BD—Pharmingen) or FITC-conjugated 113-4 was used for labeling of microglia. Anti-MHC-II Abs (rat, clone IBL-5/22; 1:50) was used to detect expression of cell-surface MHC-II proteins. To detect expression of CD11c hamster anti-CD11c (1:100; eBioscience, San Diego, Calif.) was used. Anti-Aβ (human amino-acid residues 1-17) (mouse, clone 6E10; Chemicon) was used to detect expression of human Aβ. Expression of IGF-I was detected by goat anti-IGF-I Abs (1:20; R&D Systems). Expression of TNF-α was detected by goat anti-TNF-α Abs (1:100; R&D Systems). T cells were detected with anti-CD3 polyclonal Abs (rabbit, 1:100; DakoCytomation, CA). Propidium iodide (1 μg/ml; Molecular Probes, Invitrogen, Carlsbad, Calif.), was used for nuclear staining.
Nineteen adult double-transgenic APPK595N, M596L+PS1ΔE9 mice of the B6C3-Tg (APPswe, PSEN1dE9) 85 Dbo/J strain (Borchelt et al., 1997) were purchased from The Jackson Laboratory (Bar Harbor, Me.) and were bred and maintained in the Animal Breeding Center of The Weizmann Institute of Science. All animals were handled according to the regulations formulated by the Weizmann Institute's Animal Care and Use Committee, and all experiments and procedures were approved by the Weizmann Institute's Animal Care and Use Committee.
as §1
For in-vivo experiments, the numbers of Aβ plaques and CD11b^+ microglia in the hippocampus were counted at 300-μm intervals in 6-8 coronal sections (30 μm) from each mouse. Neurogenesis in the dentate gyrus was evaluated by counting of pre-mature neurons (DCX^+), proliferating cells (BrdU^+), and newly formed mature neurons (BrdU^+/NeuN^+) in six coronal sections (370 μm apart) per mouse brain. To obtain an estimate of the total number of labeled cells per dentate gyrus, the total number of cells counted in the selected coronal sections from each brain was multiplied by the volume index (the ratio between the volume of the dentate gyrus and the total combined volume of the selected sections). Specificity of BrdU+/NeuN+ co-expression was assayed using the confocal microscope (LSM 510) in optical sections at 1-μm intervals. Quantification of CD3^+, CD11b^+ and CD11c^+ cells were analyzed from 30-50 Aβ-plaques of each mouse tested in this study. Cell counts, numbers of Aβ plaques, plaque areas, and intensity of NeuN staining per unit area in the dentate gyrus were evaluated automatically using Image-Pro Plus 4.5 software (Media Cybernetics, Carlsbad, Calif.).
We verified the presence of both transgenes in each mouse by PCR amplification of genomic DNA. Tg-AD mice aged approximately 8 months were then vaccinated subcutaneously with Cop-1 (n=6) twice during the first week and once a week thereafter. Age-matched untreated Tg-AD mice (n=7) and non-Tg littermates (n=6) served, respectively, as untreated-Tg and wild-type controls. Seven weeks after the first Cop-1 injection all the mice were euthanized and analyzed. […]

Setting [5] is: vaccinated Tg-AD mice (FIG. 2D).

For glatiramer acetate [Cop-1], in assay [1], the “MWM performance vs non-Tg littermates” value is reported as “did not differ significantly” and the “MWM performance vs untreated-Tg-AD mice” value was “superior to that of the untreated-Tg-AD mice”. In assay [2] (model of chronically elevated intraocular pressure (Bakalash et al., 2005)), the “outcome of weekly administration of adjuvant-free agent” value is listed as “neuroprotection”. In addition, in assay [2] (rat model of chronically high intraocular pressure, vaccination), the RGC loss entry is reported as “significantly reduces RGC loss”. In assay [3] (compared to non-Tg littermates (FIG. 6B)), the “newly formed mature neurons (BrdU+/NeuN+) in dentate gyrus” value was “similar”. In assay [3] (relative to non-Tg littermates (FIG. 6C)), the “pre-mature neurons (DCX+ cells) in dentate gyri” value is on record as “slightly but significantly more”. Besides, the “proliferating cells (BrdU+) in dentate gyrus” value in assay [3] (vs untreated-Tg counterparts (FIG. 6A)) is on record as “significantly more”. In addition, in assay [4] (s.c. vaccination, seven weeks after first injection, vs untreated Tg-AD mice (FIG. 2A)), the “Aβ plaques in brain cryosections stained for human Aβ” value is “very few”. In addition, in assay [4] (setting [5]), the “MHC-II expression by microglia adjacent to residual Aβ plaques” value was “most of the microglia adjacent to residual Aβ plaques expressed MHC-II” and the “TNF-α expression by microglia adjacent to residual Aβ plaques” value is listed as “hardly any of them expressed TNF-α”. Also, the “IGF-I expression by MHC-II+ microglia” value in assay [4] (vaccinated Tg-AD mice (FIG. 2F)) was “found to express IGF-I”. Besides, in assay [4] (vaccinated Tg-AD mice, 25% in untreated Tg-AD mice (FIG. 3C)), the “CD11b+ cells that became CD11b+/CD11c+ cells (associated with Aβ-plaque)” value is given as 87%. Besides, the “NeuN+ staining in hippocampal CA1 and dentate gyrus” value in assay [4] (vaccinated Tg-AD mouse relative to non-Tg littermate (FIG. 2A)) is “almost normal”. In addition, the “area occupied by the plaques (Aβ-immunoreactivity)” value in assay [4] (vs age-matched untreated Tg-AD mice (FIG. 2J)) was “significantly smaller”. Besides, in assay [4] (vs untreated Tg-AD mice (FIG. 2I)), the “total number of Aβ-plaques (30-μm hippocampal slice)” value was “significantly fewer plaques”. Also, the “CD11b+ microglia in hippocampus” value in assay [4] (vs untreated Tg-AD mice (FIG. 2K)) is “significantly fewer”. Further, the “T cells (CD3+) associated with Aβ-plaque” value in assay [4] (vs untreated Tg-AD mice (FIG. 2L)) was “significantly more”. In addition, the “number of CD11b+ cells associated with Aβ-plaque” value in assay [4] (vs untreated Tg-AD mice (FIG. 3B)) is on record as “significantly decreased”.
